According to patent US9012489B2, “Phenyl-3-aza-bicyclo[3.1.0]hex-3-yl-methanones and the use thereof as medicament” (Boehringer Ingelheim International GmbH, priority 2011, dated 2015):
pIC50: −log10 of the molar value.

Target: T1, GlyT1 transporter (Homo sapiens, UniProt P48067)
T1 construct: endogenously expressing the GlyT1 transporter; host or cells: SK-N-MC human neuroblastoma cells
T1 sequence (P48067 1-706): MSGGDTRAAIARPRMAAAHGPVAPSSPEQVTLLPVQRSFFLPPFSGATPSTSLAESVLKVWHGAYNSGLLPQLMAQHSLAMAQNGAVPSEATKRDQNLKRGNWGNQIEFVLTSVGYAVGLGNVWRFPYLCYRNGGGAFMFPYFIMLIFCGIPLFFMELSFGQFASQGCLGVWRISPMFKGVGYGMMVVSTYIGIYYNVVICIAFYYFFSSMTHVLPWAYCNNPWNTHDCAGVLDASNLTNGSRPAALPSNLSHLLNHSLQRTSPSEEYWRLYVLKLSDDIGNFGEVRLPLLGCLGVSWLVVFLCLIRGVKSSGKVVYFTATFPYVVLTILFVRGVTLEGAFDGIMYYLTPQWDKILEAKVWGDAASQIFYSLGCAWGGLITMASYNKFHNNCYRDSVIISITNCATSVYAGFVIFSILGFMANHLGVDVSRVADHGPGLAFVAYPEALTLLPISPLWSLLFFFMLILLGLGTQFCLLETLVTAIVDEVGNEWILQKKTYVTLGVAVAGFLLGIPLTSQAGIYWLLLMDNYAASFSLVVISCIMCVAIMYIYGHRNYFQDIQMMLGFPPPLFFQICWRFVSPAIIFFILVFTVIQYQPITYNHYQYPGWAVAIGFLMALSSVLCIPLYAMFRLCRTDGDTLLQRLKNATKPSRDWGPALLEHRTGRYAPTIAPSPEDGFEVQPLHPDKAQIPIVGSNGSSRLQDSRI
Test: GlyT1 assay: 3H-glycine uptake into SK-N-MC cells (Cytostar-T format)
Format: cell-based
Settings: glycine uptake in human SK-N-MC cells endogenously expressing GlyT1; 500 nM glycine, 1% DMSO, signal recorded over 60 min
Description: Cells expressing either endogenously the GlyT1 transporter like JAR cells (human placental choriocarcinoma cells; e.g. WO 2008/002583) or SK-N-MC cells (human neuroblastoma cells; Depoortere et al., 2005. Neuropsychopharmacology 30:1963-1985) or primary neurons or cells which have been transfected with a plasmid encoding the cDNA of a functional GlyT1 transporter and stably or transiently express GlyT1 (e.g. WO 2006/08200) can be used to monitor glycine uptake in cells. Different protocols for determination of the glycine uptake into the cells described above can be applied in order to identify and rank compounds which interfere with glycine uptake in the selected cell.
Compounds outlined in the examples below were characterized using human SK-N-MC cells (ATCC number HTB-10) endogenously expressing the GlyT1 transporter which is responsible for the uptake of glycine into these cells and the uptake of glycine into these cells is monitored using the Cytostar-T assay format (GE Healthcare, RPNQ0162) which is based on the radioactive glycine taken up by the cells and brought into proximity with the scintillant contained within the base of the plate. The radioactive decay is converted to a light signal based on the integration of the scintillation matrix into the assay plate. The uptake is recorded as kinetic and the slope of the measured counts over time is used to calculate IC50.
In detail, SK-N-MC cells are seeded into 96-well Cytostar-T assay plates at a density of 200,000 cells/well and grown for 16-18 hours to confluence in growth medium as recommended by ATCC. Before starting the assay, cells are washed once with HBSS (Hank's buffered salt solution; Sigma, H8264) cont. 5 mM alanine (referred in here as HBSS/Ala) and afterwards the following reagents are added: • 1. 80 μl/well HBSS/Ala • 2. 20 μl/well of HBSS/Ala containing 6× the concentration of compound in 6% DMSO • 3. approx. 5-10 min incubation • 4. 20 μl/well 3 μM glycine (^3H-glycine (Perkin Elmer, NET004001MC, specific activity: 52 Ci/mmol; diluted 1:1 with unlabelled glycine) in HBSS/Ala.
In the final assay, glycine concentration is 500 nM (250 nM derived from the ^3H-glycine Perkin Elmer, 250 nM unlabelled glycine), DMSO concentration is 1%.
The assay plate is immediately after addition of the ^3H-glycine placed into a Micro-Beta Counter (Perkin Elmer) and the signal is recorded over 60 min.
To calculate uptake, the slope in the linear range of the kinetics is determined using GraphPadPrism and for the different slopes at the selected concentrations IC50 are calculated by curve fitting using the software GraphPadPrism.
Maximal glycine uptake in every experiment is determined by incubation of SK-N-MC cells with substrate but without inhibitor. Unspecific uptake of glycine by the cells is determined by incubating the cells with substrate and a reference GlyT1 inhibitor e.g. 10 μM RG-1678 (Pinard et al., 2010, J. Med. Chem. 53(12):4603-14).
Compounds are diluted from 10 mM stocks and in general, for IC50 determination 8 compound concentrations are used.

| pIC50 | Structure (SMILES) |
| --- | --- |
| 8.10 | C[C@H](Oc1ccc(S(C)(=O)=O)cc1C(=O)N1CC2CC2(c2noc(CC(F)(F)F)n2)C1)C(F)(F)F (mixture of isomers) [Example 61, [5-Methanesulfonyl-2-(2,2,2-trifluoro-1-methyl-ethoxy)-phenyl]-{1-[5-(2,2,2-trifluoro-ethyl)-[1,2,4]oxadiazol-3-yl]-3-aza-bicyclo[3.1.0]hex-3-yl}-methanone] |
| 8.05 | C[C@H](Oc1ccc(S(C)(=O)=O)cc1C(=O)N1CC2CC2(c2noc(C3(C(F)(F)F)CC3)n2)C1)C(F)(F)F (mixture of isomers) [Example 65, [5-Methanesulfonyl-2-(2,2,2-trifluoro-1-methyl-ethoxy)-phenyl]-{1-[5-(1-trifluoromethyl-cyclopropyl)-[1,2,4]oxadiazol-3-yl]-3-aza-bicyclo[3.1.0]hex-3-yl}-methanone] |
| 8.15 | C[C@@H](Oc1ccc(S(C)(=O)=O)cc1C(=O)N1CC2CC2(c2noc(C3(C(F)(F)F)CC3)n2)C1)C(F)(F)F (mixture of isomers) [Example 68, [5-Methanesulfonyl-2-(2,2,2-trifluoro-1-methyl-ethoxy)-phenyl]-{1-[5-(1-trifluoromethyl-cyclopropyl)-[1,2,4]oxadiazol-3-yl]-3-aza-bicyclo[3.1.0]hex-3-yl}-methanone] |
| 7.77 | C[C@@H](Oc1ccc(S(C)(=O)=O)cc1C(=O)N1CC2CC2(c2nccc(C(F)(F)F)n2)C1)C(F)(F)F (mixture of isomers) [Example 72, [5-Methanesulfonyl-2-(2,2,2-trifluoro-1-methyl-ethoxy)-phenyl]-[1-(4-trifluoromethyl-pyrimidin-2-yl)-3-aza-bicyclo[3.1.0]hex-3-yl]-methanone] |
| 8.05 | CCS(=O)(=O)c1ccc(O[C@@H](C)C(F)(F)F)c(C(=O)N2CC3CC3(c3nccc(C(F)(F)F)n3)C2)c1 (mixture of isomers) [Example 73, [5-Ethanesulfonyl-2-(2,2,2-trifluoro-1-methyl-ethoxy)-phenyl]-[1-(4-trifluoromethyl-pyrimidin-2-yl)-3-aza-bicyclo[3.1.0]hex-3-yl]-methanone] |
| 8.00 | CCS(=O)(=O)c1ccc(O[C@H](C)C(F)(F)F)c(C(=O)N2CC3CC3(c3nccc(C(F)(F)F)n3)C2)c1 (mixture of isomers) [Example 76, [5-Ethanesulfonyl-2-(2,2,2-trifluoro-1-methyl-ethoxy)-phenyl]-[1-(4-trifluoromethyl-pyrimidin-2-yl)-3-aza-bicyclo[3.1.0]hex-3-yl]-methanone] |
| 8.22 | C[C@@H](Oc1ccc(S(C)(=O)=O)cc1C(=O)N1CC2CC2(c2nccc(C3CC3)n2)C1)C(F)(F)F (mixture of isomers) [Example 79, [1-(4-Cyclopropyl-pyrimidin-2-yl)-3-aza-bicyclo[3.1.0]hex-3-yl]-[5-methanesulfonyl-2-(2,2,2-trifluoro-1-methyl-ethoxy)-phenyl]-methanone] |
| 6.77 | C[C@H](Oc1ccc(C#N)cc1C(=O)N1CC2CC2(c2noc(C(F)(F)F)n2)C1)C(F)(F)F (mixture of isomers) [Example 88, 4-(2,2,2-Trifluoro-1-methyl-ethoxy)-3-[1-(5-trifluoromethyl-[1,2,4]oxadiazol-3-yl)-3-aza-bicyclo[3.1.0]hexane-3-carbonyl]-benzonitrile] |
| 6.95 | C[C@@H](Oc1ccc(C#N)cc1C(=O)N1CC2CC2(c2noc(C(F)(F)F)n2)C1)C(F)(F)F (mixture of isomers) [Example 91, 4-(2,2,2-Trifluoro-1-methyl-ethoxy)-3-[1-(5-trifluoromethyl-[1,2,4]oxadiazol-3-yl)-3-aza-bicyclo[3.1.0]hexane-3-carbonyl]-benzonitrile] |
| 7.60 | CCS(=O)(=O)c1ccc(O[C@H](C)C(F)(F)F)c(C(=O)N2CC3CC3(c3noc(C(F)(F)F)n3)C2)c1 (mixture of isomers) [Example 92, [5-Ethanesulfonyl-2-(2,2,2-trifluoro-1-methyl-ethoxy)-phenyl]-[1-(5-trifluoromethyl-[1,2,4]oxadiazol-3-yl)-3-aza-bicyclo[3.1.0]hex-3-yl]-methanone] |

Continued, molecule first:

| Structure (SMILES) | pIC50 |
| --- | --- |
| C[C@H](Oc1ccc(S(C)(=O)=O)cc1C(=O)N1CC2CC2(c2noc(C3(C)COC3)n2)C1)C(F)(F)F (mixture of isomers) [Example 62, [5-Methanesulfonyl-2-(2,2,2-trifluoro-1-methyl-ethoxy)phenyl]-{1-[5-(3-methyl-oxetan-3-yl)-[1,2,4]oxadiazol-3-yl]-3-aza-bicyclo[3.1.0]hex-3-yl}-methanone] | 8.00 |
| C[C@H](Oc1ccc(S(C)(=O)=O)cc1C(=O)N1CC2CC2(c2noc(C3CC3(F)F)n2)C1)C(F)(F)F (mixture of isomers) [Example 63, {1-[5-(2,2-Difluoro-cyclopropyl)-[1,2,4]oxadiazol-3-yl]-3-aza-bicyclo[3.1.0]hex-3-yl}-[5-methanesulfonyl-2-(2,2,2-trifluoro-1-methyl-ethoxy)-phenyl]-methanone] | 8.00 |
| C[C@@H](Oc1ccc(S(C)(=O)=O)cc1C(=O)N1CC2CC2(c2noc(C3CC3(F)F)n2)C1)C(F)(F)F (mixture of isomers) [Example 64, {1-[5-(2,2-Difluoro-cyclopropyl)-[1,2,4]oxadiazol-3-yl]-3-aza-bicyclo[3.1.0]hex-3-yl}-[5-methanesulfonyl-2-(2,2,2-trifluoro-1-methyl-ethoxy)-phenyl]-methanone] | 8.40 |
| C[C@H](Oc1ccc(S(C)(=O)=O)cc1C(=O)N1CC2CC2(c2coc(C3CC3)n2)C1)C(F)(F)F (mixture of isomers) [Example 80, [1-(2-Cyclopropyl-oxazol-4-yl)-3-aza-bicyclo[3.1.0]hex-3-yl]-[5-methanesulfonyl-2-((S)-2,2,2-trifluoro-1-methyl-ethoxy)-phenyl]-methanone] | 8.52 |
| C[C@@H](Oc1ccc(S(C)(=O)=O)cc1C(=O)N1CC2CC2(c2coc(C3CC3)n2)C1)C(F)(F)F (mixture of isomers) [Example 81, [1-(2-Cyclopropyl-oxazol-4-yl)-3-aza-bicyclo[3.1.0]hex-3-yl]-[5-methanesulfonyl-2-((S)-2,2,2-trifluoro-1-methyl-ethoxy)-phenyl]-methanone] | 8.22 |
| CC(C)COc1ccc(S(C)(=O)=O)cc1C(=O)N1CC2CC2(c2noc(C(F)(F)F)n2)C1 (racemic) [Example 95, (2-Isobutoxy-5-methxnesulfonyl-phenyl)-[1-(5-trifluoromethyl-[1,2,4]oxadiazol-3-yl)-3-aza-bicyclo[3.10]hex-3-yl]-methanone] | 6.88 |
| CC(C)Oc1ccc(S(C)(=O)=O)cc1C(=O)N1CC2CC2(c2noc(C(F)(F)F)n2)C1 (racemic) [Example 96, (2-Isopropoxy-5-methanesulfonyl-phenyl)-[1-(5-trifluoromethyl-[1,2,4]oxadiazol-3-yl)-3-aza-bicyclo[3.1.0]hex-3-yl]-methanone] | 7.57 |
| CC1(C)Cc2cc(S(C)(=O)=O)cc(C(=O)N3CC4CC4(c4noc(C(F)(F)F)n4)C3)c2O1 (racemic) [Example 99, (5-Methanesulfonyl-2,2-dimethyl-2,3-dihydro-benzofuran-7-yl)-[1-(5-trifluoromethyl-[1,2,4]oxadiazol-3-yl)-3-aza-bicyclo[3.1.0]-3-yl]-methanone] | 6.54 |
